Converted amounts (≈) assume the structure as drawn. “And” between values parts separate entries of the source, which are not always exact repeats. Equal values may be shown once. Read-outs that look alike come from different tables or passages of the source. Non-standard residues stand in square brackets, D forms with d. Residues, ends and D or L forms follow the SMILES beside them. *: point of attachment. Orn = NCCC[C@H](N)C(=O)O; Ac5c = NC1(C(=O)O)CCCC1; Aib = CC(C)(N)C(=O)O; Butyryl = CCCC(=O)*
Legend:
[1] = biological target: T1, purified human platelet TSP-1 (activation of recombinant latent TGF-β1) (Homo sapiens, UniProt P07996); experiment: ELISA-based screening assay: TSP-1 activation of recombinant latent TGF-β1; format: biochemical; conditions: for % Inhibition at 50 pM: Table 2, 5e-05 µM
T1 construct: purified human platelet TSP-1 was incubated with compounds; from tissue; host or cells: human platelets
T1 sequence (P07996 19-1170): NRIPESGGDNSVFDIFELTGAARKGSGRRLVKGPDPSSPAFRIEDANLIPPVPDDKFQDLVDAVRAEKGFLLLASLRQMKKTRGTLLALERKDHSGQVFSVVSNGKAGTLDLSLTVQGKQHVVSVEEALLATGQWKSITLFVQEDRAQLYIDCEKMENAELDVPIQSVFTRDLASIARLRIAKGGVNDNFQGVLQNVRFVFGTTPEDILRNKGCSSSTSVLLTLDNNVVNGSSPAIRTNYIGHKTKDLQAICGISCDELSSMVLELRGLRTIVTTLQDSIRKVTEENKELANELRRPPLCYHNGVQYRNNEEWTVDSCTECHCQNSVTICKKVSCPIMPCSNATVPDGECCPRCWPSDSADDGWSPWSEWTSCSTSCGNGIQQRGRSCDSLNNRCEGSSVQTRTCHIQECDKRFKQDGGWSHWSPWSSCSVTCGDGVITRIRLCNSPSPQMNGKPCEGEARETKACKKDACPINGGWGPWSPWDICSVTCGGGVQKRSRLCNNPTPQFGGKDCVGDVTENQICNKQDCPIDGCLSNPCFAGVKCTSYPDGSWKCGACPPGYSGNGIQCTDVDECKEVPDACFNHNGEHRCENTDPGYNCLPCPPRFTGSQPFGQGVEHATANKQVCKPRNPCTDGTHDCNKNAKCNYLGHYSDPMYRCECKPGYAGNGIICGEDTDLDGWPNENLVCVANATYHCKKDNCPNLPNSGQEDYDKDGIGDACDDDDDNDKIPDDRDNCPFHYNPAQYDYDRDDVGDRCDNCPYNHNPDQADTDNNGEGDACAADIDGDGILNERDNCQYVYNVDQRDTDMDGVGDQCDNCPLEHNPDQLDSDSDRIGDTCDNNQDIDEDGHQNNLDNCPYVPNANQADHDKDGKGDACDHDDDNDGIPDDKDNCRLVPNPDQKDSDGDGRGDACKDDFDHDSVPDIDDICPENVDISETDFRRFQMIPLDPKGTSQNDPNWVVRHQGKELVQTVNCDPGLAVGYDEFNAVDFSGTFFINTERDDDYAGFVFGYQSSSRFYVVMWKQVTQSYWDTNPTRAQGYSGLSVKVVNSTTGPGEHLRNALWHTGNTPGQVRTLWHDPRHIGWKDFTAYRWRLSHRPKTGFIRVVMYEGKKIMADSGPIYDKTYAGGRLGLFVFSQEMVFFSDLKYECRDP
Description: For initial screening, an ELISA-based screening assay was used in which purified human platelet TSP-1 was incubated with compounds and then incubated with recombinant latent TGF-β1 (purchased from R&D Systems). Activity is measured in a commercially available ELISA which detects only active TGF-β (R &D Systems). Activity in the presence of compounds is compared to activity in TSP-1+latent TGF-β samples without inhibitory compounds (Lu et al. (2016) Am J Pathol 186:678-690).

[2] = tested on: TSP-1 activation of latent TGF-β; experiment: cell-based assay of TSP1 activation of latent TGF-β (Table 3; Secondary Assay of Table 1); set-up: species or system human
Description: To specifically assess activity of compounds in liver cell specific assays, two different assays were used. In the first, human hepatic stellate cells were incubated overnight in low serum media to condition the media with secreted latent TGF-β. Purified TSP1 either preincubated with compounds or not will be added to cultures and then conditioned media harvested to assess TGF-β biological activity using the R&D Systems ELISA as above. Hepatic stellate cells will be purchased from commercial sources. Although hepatic stellate cells are the primary drivers of liver fibrosis, conditions which drive liver fibrosis can induce hepatocyte TSP-1 expression which can then have paracrine effects on controlling TGF-β activation in hepatic stellate cells. Furthermore, TGF-β can negatively impact hepatocyte regeneration following injury. Therefore, the ability of compounds to blockTSP-1 activation of latent TGF-β will also be assessed in cultured primary human hepatocytes following the protocol described for the hepatic stellate cells. Similar approaches have successfully been used to screen compounds which inhibit human myeloma cell derived latent TGF-β activation by TSP-1 (Lu et al. (2016) Am J Pathol 186:678-690).

[3] = Pharmacokinetics (% F, T1/2, Tmax); conditions: in vivo
[4] = Human liver microsomal stability; format: in vitro ADME; conditions: human liver microsomes; read-out: Human Liver Microsomal Stability t1/2
[5] = Rat liver microsomal stability; format: in vitro ADME; conditions: rat liver microsomes; read-out: Rat Liver Microsomal Stability t1/2
Log D = format: physicochemical
Solubility = format: physicochemical
[6] = biological target: TSP1 (activation of recombinant latent TGF-β1) (Homo sapiens, UniProt P07996); experiment: Latent TGF-β activation by TSP1 in vitro (Quantikine ELISA for TGF-β1); format: biochemical; conditions: TSP1 155 nM
TSP1 (activation of recombinant latent TGF-β1), sequence (P07996 19-1170): as above
Description: Previous studies have illustrated the ability of tripeptide analogs such as compound no. 93 to block latent TGF-β activation by TSP1 in vitro (see FIG. 5 and FIG. 6). Briefly, TSP1 (155 nM, 20 μg/ml) was incubated for 10 min at 37° C. with 93, LSKL (SEQ ID NO:1), or control SLLK (SEQ ID NO:2) peptide. The mixture was then incubated with […] recombinant latent TGF-β1 for 20 min at 37° C. TGF-β1 activity was measured using an R&D systems Quantikine ELISA for TGF-β1.

CAG MM cells = experiment: TGF-β activity in CAG MM cells (phospho-Smad 2 immunoblot); format: cell-based, human; conditions: 30 nM TSP1, 6 hrs
Description: Referring to FIG. 4A, CAG MM cells were incubated with 30 nM TSP1 for 6 hrs LSKL (SEQ ID NO:1) or SLLK (SEQ ID NO:2). Cell lysates were immunoblotted for phosphor-Smad 2. Blots were stripped and reprobed for total Smad 2/3 and GAPDH. Results are normalized to GAPDH (untreated controls=1). LSKL (SEQ ID NO:1) reduces TSP1 induced treatment or luciferase activity in cells treated with active TGF-β (not shown).

MSCs = experiment: Osteoblast differentiation by MSCs under osteogenic conditions; format: cell-based; conditions: osteogenic media, 20 days; TGF-β 5 ng/mL, TSP1 10 nM, LSKL 25 μM
Description: Referring to FIG. 1A, MSCs were grown to confluence in basal (control) media. Cells were treated with control growth media, osteogenic media, or osteogenic media with TGF-β (5 ng/mL) or stripped TSP1 (10 nM), TSP1+LSKL (SEQ ID NO:1) (25 μM), TSP1+SLLK (SEQ ID NO:2) (25 μM control peptide), or TSP1+anti-TGF-β (5 μg/mL). Cultures were fed daily for 20 days. Alkaline phosphatase staining is representative of triplicate wells.
Referring to FIG. 1B, cells were treated every 2 days for 20 days with MSC growth media (control) or osteogenic media with TGF-β (5 ng/mL) or TSP1 (10 nM) daily treatment with 25 μM LSKL (SEQ ID NO:1) or SLLK (SEQ ID NO:2) peptides. RNA isolated from cells was used for RT-PCR analysis of Runx2 expression. Samples were run in duplicate and each experimental treatment in triplicate.

[7] = 30 mg/kg i.p., 3 times weekly, 15 weeks; cited from earlier work
[8] = cited from earlier work
CAG-heparanase MM cells = experiment: PAI-1 promoter luciferase reporter assay of conditioned media of CAG-heparanase MM cells treated with TSP1; format: cell-based, human; conditions: 67 nM TSP1, conditioned media
Description: Referring to FIG. 4B, CAG-heparanase MM cells were treated with 67 nM TSP1 and conditioned media were assessed for TGF-β activity using PAI-1 promoter luciferase reporter assay. There is ˜[…] TGF-β in the added TSP1 and LSKL (SEQ ID NO:1) blocks 80% of the CAG-heparanase MM cell generated TGF-β activity.

CAG human myeloma cells = experiment: SCID-tibia MM model; format: in vivo, SCID mice
Description: Referring to FIG. 2A and FIG. 2B, CAG human myeloma cells were injected into the intratibial marrow space of SCID mice. After 2 weeks, tumors were imaged by bioluminescence and serum 1 g kappa levels measured. Mice were randomized to equalize 1 g kappa levels. Osmotic pumps were implanted subcutaneously to deliver saline or LSKL peptide (SEQ ID NO:1) (30 mg/kg/day) (n=10/group). Tumors were imaged and serum 1 g kappa levels measured at 2 and 4 weeks of treatment. Data are means SEM. Bioluminescence; *p=0.019 ANOVA, serum kappa; p=0.037, t-test.
Referring to FIG. 3A-C, at 4 weeks of treatment, tibiae from mice injected with CAG MM cells were fixed and stained with antibody to phosphor-Smad 2. Left panels are from 2 different saline treated mice and the right panels are from LSKL (SEQ ID NO:1)-treated mice. Pixels of brown staining were quantified in 4 fields per animal. 5-6 animals per group were analyzed. Data are the percent area exceeding the threshold for positive staining (FIG. 3A). […] P=0.004.

[9] = biological target: recombinant latent TGF-β1 (purchased from R&D Systems) (UniProt P01137); experiment: cell-based or functional assay
recombinant latent TGF-β1 (purchased from R&D Systems), sequence (P01137 30-390 limits assumed): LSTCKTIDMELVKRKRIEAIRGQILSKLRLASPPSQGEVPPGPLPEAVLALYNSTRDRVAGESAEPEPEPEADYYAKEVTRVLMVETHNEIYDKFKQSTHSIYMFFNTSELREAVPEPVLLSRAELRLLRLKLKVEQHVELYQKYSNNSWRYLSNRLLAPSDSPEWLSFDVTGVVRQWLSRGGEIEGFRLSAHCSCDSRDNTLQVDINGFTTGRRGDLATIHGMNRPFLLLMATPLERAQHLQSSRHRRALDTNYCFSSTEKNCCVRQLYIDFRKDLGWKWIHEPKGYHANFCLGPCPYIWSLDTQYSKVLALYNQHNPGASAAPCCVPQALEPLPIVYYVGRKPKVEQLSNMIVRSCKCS

[10] = ELISA-based assay, Table 2, read-out: % Inhibition at 50 pM
[11] = Conc. of compound 1 pM (last column: 30 nM)
[12] = Conc. of compound 50 pM (last column: 300 nM)
[13] = Conc. of compound 100 pM (last column: 3 μM)

CC(=O)N[C@@H](CCCN)C(=O)Nc1cc(C)c[nH]c1=O [Compound 30, (S)-2-acetamido-5-amino-N-(5-methyl-2-oxo-1,2-dihydropyridin-3-yl)pentanamide]
inhibition at 50 pM [1, 10]: 50%

CCCC(=O)N[C@@H](CCCN)C(=O)N[C@@H](CC(C)C)C(N)=O [Compound 63, (S)-5-amino-N—((S)-1-amino-4-methyl-1-oxopentan-2-yl)-2-butyramidopentanamide] (Butyryl-[Orn]-Leu-NH2)
% Inhibition [2, 11]: 67% | Conc. of Active TGF-β (pM) [2, 11]: 2.2 pM | % Inhibition [2, 12]: 82% | Conc. of Active TGF-β (pM) [2, 12]: 0.7 pM | % Inhibition [2, 13]: 100% | Conc. of Active TGF-β (pM) [2, 13]: 0 pM | % Inhibition at 50 pM ([1]; ELISA-based assay): 59% and 85%

CC(=O)N[C@@H](CCCN)C(=O)NC(C)(C)C(N)=O [Compound 8, (S)-2-acetamido-5-amino-N-(1-amino-2-methyl-1-oxopropan-2-yl)pentanamide] (Ac-[Orn]-[Aib]-NH2)
% Inhibition [2, 11]: 65% | Conc. of Active TGF-β (pM) [2, 11]: 2.3 pM | % Inhibition [2, 12]: 79% | Conc. of Active TGF-β (pM) [2, 12]: 0.81 pM | % Inhibition [2, 13]: 80% | Conc. of Active TGF-β (pM) [2, 13]: 0.78 pM | inhibition at 0.3 µM ([2]; Homo sapiens, read-out: Secondary Assay: % Inhibition at 300 nM): 92% | Tmax [3]: 0.5 h | bioavailability [3]: 5% | half-life ([3]; iv): 1.9 h | inhibition at 50 pM [1, 10]: 100% | inhibition at 50 pM ([1]; read-out: Primary Assay (% Inhibition at 50 pM)): 79% | half-life [4]: 5 h | half-life [5]: 2.84 h | logD (Log D): 1 | Solubility (Solubility): 4.5 µM (≈ 1.16 µg/mL)

CC(=O)N[C@@H](CCCN)C(=O)NCC(N)=O [Compound 82, (S)-2-acetamido-5-amino-N-(2-amino-2-oxoethyl)pentanamide] (Ac-[Orn]-Gly-NH2)
% Inhibition [2, 11]: 17% | Conc. of Active TGF-β (pM) [2, 11]: 4.2 pM | % Inhibition [2, 12]: 80% | Conc. of Active TGF-β (pM) [2, 12]: 0.79 pM | % Inhibition [2, 13]: 100% | Conc. of Active TGF-β (pM) [2, 13]: 0 pM | inhibition at 50 pM [1, 10]: 100%

CC(C)C[C@H](NC(=O)[C@H](CCCN)NC(=O)C1CCCC1)C(N)=O [Compound 37, N—((S)-5-amino-1-(((S)-1-amino-4-methyl-1-oxopentan-2-yl)amino)-1-oxopentan-2-yl)cyclopentanecarboxamide]
inhibition at 50 pM [1, 10]: 30%

SLLK
latent TGF-β activation by TSP1 in vitro (TGF-β1 activity vs TSP1+latent TGF-β) [6]: not significant

CC(=O)N[C@@H](CCCN)C(=O)NC1(C(N)=O)CCCC1 [Compound 13, (S)-1-(2-Acetamido-5-aminopentanamido)cyclopentanecarboxamide] (Ac-[Orn]-[Ac5c]-NH2)
inhibition at 50 pM [1, 10]: 35%

CC(=O)N[C@@H](CC(C)C)C(=O)N[C@@H](CCCN)C(N)=O [Compound 61, (S)-2-acetamido-N—((S)-1,5-diamino-1-oxopentan-2-yl)-4-methylpentanamide] (Ac-Leu-[Orn]-NH2)
% Inhibition at 50 pM ([1]; ELISA-based assay): 63% and 99%

LSKL
TGF-β activity in CAG MM cells (phospho-Smad 2) (CAG MM cells): Reduces TGF-B Activity | osteoblast differentiation by MSCs (alkaline phosphatase staining, Runx2 expression) (MSCs): Increases Osteoblast Differentiation | necropsy findings after treatment [7]: no inflammation, no tumors in all major organs, and no impairment of wound healing | plasma stability half-life [8]: 2.1 min | block of CAG-heparanase MM cell generated TGF-β activity (CAG-heparanase MM cells): 80% | MM tumor burden (bioluminescence, serum Ig kappa) (CAG human myeloma cells; 30 mg/kg/day by subcutaneous osmotic pump, 2 and 4 weeks of treatment): Reduces Mm Tumor Burden | phospho-Smad 2 staining in the bone marrow (CAG human myeloma cells; 4 weeks of treatment, tibiae): Reduces Phospho-Smad 2

Thrombospondin 1 [TSP1]
TGF-β activity in CAG MM cells (phospho-Smad 2) (CAG MM cells): Induces TGF-B Activity | osteoblast differentiation by MSCs (alkaline phosphatase staining, Runx2 expression) (MSCs): Decrease Osteoblast Differentiation

TGF-β
osteoblast differentiation by MSCs (alkaline phosphatase staining, Runx2 expression) (MSCs): Decrease Osteoblast Differentiation

Thrombospondin 1 (TSP1), purified human platelet TSP-1 (from UniProt P07996 19-1170)
Conc. of Active TGF-β (pM), ELISA which detects only active TGF-β [9]: 4.9 pM

— US11046729B2, “Dipeptide analogs as TGF-beta inhibitors” (SOUTHERN RESEARCH INSTITUTE, priority 2017, dated 2021)
